# Measurements taken from US20060063766A1, “Use of aryl- and heteroaryl-substituted tetrahydroisoquinolines to block reuptake of norepinephrine, dopamine, and serotonin” (priority 2004, published 2006).
# Counter-ions that a name gives are not always drawn.
# Tests used:
# DAT = molecular target: T1, DAT (Homo sapiens, UniProt Q01959); assay: biochemical; type: binding; details: for inhibition at 0.1 µM: read-out: % inhibition at 100 nM concentration of test compound, DAT
# T1 construct: cDNAs containing the complete coding regions of each transporter were amplified by PCR from human brain libraries; expressed in transfected cells; host or cells: HEK293E
# T1 sequence (Q01959 whole entry): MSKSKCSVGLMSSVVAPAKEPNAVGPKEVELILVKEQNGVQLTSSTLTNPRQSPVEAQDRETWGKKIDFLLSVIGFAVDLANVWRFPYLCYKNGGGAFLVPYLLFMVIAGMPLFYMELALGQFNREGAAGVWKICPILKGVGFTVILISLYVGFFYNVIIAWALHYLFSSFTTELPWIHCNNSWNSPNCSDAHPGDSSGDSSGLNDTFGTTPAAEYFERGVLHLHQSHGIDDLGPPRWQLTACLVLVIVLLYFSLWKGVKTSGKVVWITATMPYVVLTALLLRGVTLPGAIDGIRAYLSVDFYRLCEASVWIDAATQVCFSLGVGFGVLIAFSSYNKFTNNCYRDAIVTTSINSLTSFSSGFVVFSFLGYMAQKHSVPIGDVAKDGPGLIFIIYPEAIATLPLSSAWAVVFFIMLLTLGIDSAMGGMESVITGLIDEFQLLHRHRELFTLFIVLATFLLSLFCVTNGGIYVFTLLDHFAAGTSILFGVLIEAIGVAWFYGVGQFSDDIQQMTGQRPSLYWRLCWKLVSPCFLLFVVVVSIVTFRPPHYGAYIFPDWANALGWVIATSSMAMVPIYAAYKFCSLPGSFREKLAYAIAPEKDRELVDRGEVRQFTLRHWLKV
# SERT = SERT (Homo sapiens, UniProt P31645); assay: biochemical; details: for inhibition at 0.1 µM: read-out: % inhibition at 100 nM concentration of test compound, SERT
# Chain of SERT (P31645 whole entry): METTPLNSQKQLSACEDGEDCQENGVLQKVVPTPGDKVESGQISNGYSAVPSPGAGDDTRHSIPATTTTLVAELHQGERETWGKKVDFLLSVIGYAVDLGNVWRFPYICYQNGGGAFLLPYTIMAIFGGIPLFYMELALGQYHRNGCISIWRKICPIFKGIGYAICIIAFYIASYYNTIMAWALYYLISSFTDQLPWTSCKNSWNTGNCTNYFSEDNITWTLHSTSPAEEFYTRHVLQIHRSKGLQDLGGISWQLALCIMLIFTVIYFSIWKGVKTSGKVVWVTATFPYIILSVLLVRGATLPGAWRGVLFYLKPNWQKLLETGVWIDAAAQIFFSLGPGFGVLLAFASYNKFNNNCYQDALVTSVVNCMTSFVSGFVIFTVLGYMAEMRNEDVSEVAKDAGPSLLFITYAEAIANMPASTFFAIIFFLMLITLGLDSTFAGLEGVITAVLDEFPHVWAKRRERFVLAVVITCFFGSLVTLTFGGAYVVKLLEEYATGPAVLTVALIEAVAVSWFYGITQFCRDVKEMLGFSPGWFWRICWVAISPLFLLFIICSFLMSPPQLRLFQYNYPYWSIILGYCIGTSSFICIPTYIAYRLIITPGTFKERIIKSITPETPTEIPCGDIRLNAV
SMILES,melting point,other results
"COc1cccc2cc(C3CN(C)Cc4ccccc43)oc12 (single isomer, unassigned) [Example 11]",,Ki (DAT): > 300 nM; Ki (SERT): 26.8 nM
CCN1Cc2ccccc2C(c2ccc3sccc3c2OC)C1 (stereo not shown) (as salt: fumarate),91 to 92 °C,
COc1c(O)ccc2c1CN(C)CC2c1ccc2ccccc2c1.O=C(O)/C=C\C(=O)O (stereo not shown),85 to 90 °C,
"CN1Cc2cc(-c3cnccn3)ccc2C(c2cc3ccccc3s2)C1 (racemic) (as salt: maleate) [Example 71, (±)-4-(benzo[b]thiophen-2-yl)-2-methyl-7-(pyrazin-2-yl)-1,2,3,4-tetrahydroisoquinoline]",102 to 105 °C,
"COc1c(C2CN(C)Cc3ccccc32)ccc2sccc12 (single isomer, unassigned) [Example 82]",,Ki (DAT): > 1000 nM; Ki (SERT): 4.3 nM
"CN1Cc2ccccc2C(c2cccs2)C1 (racemic) [thiophen-2-yl, reference compound]",,Ki (DAT): 5990 nM; Ki (SERT): 2450 nM
"CN1Cc2ccccc2C(c2cc(Cl)c3[nH]ncc3c2)C1 (single isomer, unassigned; (-)) [Example 125, (−)-4-(7-chloro-1H-indazol-5-yl)-2-methyl-1,2,3,4-tetrahydoisoquinoline, maleate salt]",,Ki (DAT): 11.5 nM; Ki (SERT): 21.3 nM
CN1Cc2ccccc2C(c2nc3ccccc3s2)C1.O=C(O)/C=C\C(=O)O (racemic),165 to 170 °C,
"CCN1Cc2ccccc2C(c2ccc3cn[nH]c3c2)C1 (single isomer, unassigned; (+)) [Example 130, (+)-4-(1H-Indazol-6-yl)-2-ethyl-1,2,3,4-tetrahydroisoquinoline, maleate salt]",,Ki (DAT): 105 nM; Ki (SERT): 22.5 nM
"CN1Cc2cc(-c3cnccn3)ccc2C(c2cc3ccccc3s2)C1 (racemic) [Example 71, (±)-4-(benzo[b]thiophen-2-yl)-2-methyl-7-(pyrazin-2-yl)-1,2,3,4-tetrahydroisoquinoline]",,inhibition at 0.1 µM (DAT): 33%; inhibition at 0.1 µM (SERT): 91%
COc1c(C2CN(C)Cc3ccccc32)ccc2sccc12 (stereo not drawn) (as salt: fumarate) [82 (+)],97 to 99 °C,
"Cc1noc(C)c1-c1ccc2c(c1)CN(C)CC2c1ccc2ccccc2c1 (racemic) [Example 142, (±)-7-(3,5-dimethyl-isoxazol-4-yl)-2-methyl-4-napthalen-2-yl-1,2,3,4-tetrahydroisoquinoline, maleate salt]",,Ki (DAT): 104 nM; Ki (SERT): 5.2 nM
"Cc1csc(C2CN(C)Cc3ccccc32)c1 (racemic) [4-methyl-thiophen-2-yl, reference compound]",,Ki (DAT): 2250 nM; Ki (SERT): 3170 nM
CN1Cc2ccccc2C(c2ccc3sncc3c2)C1.O=C(O)/C=C\C(=O)O (stereo not drawn) [Example 135 (−)-enantiomer],127 to 129 °C,
COc1c(C2CN(C)Cc3ccccc32)ccc2sccc12 (stereo not drawn) (as salt: fumarate) [Example 82 (−)],94 to 96 °C,
CN1Cc2cc(-c3ncccn3)ccc2C(c2ccc3ccccc3c2)C1.O=C(O)/C=C\C(=O)O (stereo not shown) [Example 140],84 to 85 °C,
CN1Cc2cc(-c3ncccn3)ccc2C(c2cc3ccccc3s2)C1 (racemic) (as salt: maleate),103 to 106 °C,
CN1Cc2cc(N3CCOCC3)ccc2C(c2cccc3sccc23)C1 (racemic) (as salt: maleate),103 to 107 °C,
CN1Cc2ccccc2C(c2nc3ccccc3o2)C1.O=C(O)/C=C\C(=O)O (racemic),135 to 140 °C,
CN1Cc2ccccc2C(c2ccc3c(cnn3Cc3cccc(C#N)c3)c2)C1.O=C(O)/C=C\C(=O)O (stereo not shown),83 to 88 °C,
"Cc1noc(C)c1-c1ccc2c(c1)CN(C)CC2c1ccc2ccccc2c1 (racemic) (as salt: maleate) [Example 142, (±)-7-(3,5-dimethyl-isoxazol-4-yl)-2-methyl-4-napthalen-2-yl-1,2,3,4-tetrahydroisoquinoline, maleate salt]",88 to 90 °C,
"Cc1noc(C)c1C1CN(C)Cc2ccccc21 (racemic) [4-(3,5-dimethyl-isoxazol-4-yl, reference compound]",,Ki (DAT): 128000 nM; Ki (SERT): 1400 nM
"CN1Cc2ccccc2C(c2cc(Cl)c3[nH]ncc3c2)C1 (single isomer, unassigned; (-)) (as salt: maleate) [Example 125, (−)-4-(7-chloro-1H-indazol-5-yl)-2-methyl-1,2,3,4-tetrahydoisoquinoline, maleate salt]",104 to 110 °C,
CN1Cc2cc(-c3ncccn3)ccc2C(c2ccc3ccccc3c2)C1.O=C(O)/C=C\C(=O)O (stereo not drawn) [Example 140 (−)-enantiomer],86 to 88 °C,
"CN1Cc2cc(-c3cncnc3)ccc2C(c2cc3ccccc3s2)C1 (racemic) (as salt: maleate) [Example 73, (±)-4-(benzo[b]thiophen-2-yl)-2-methyl-7-(pyrimidin-5-yl)-1,2,3,4-tetrahydroisoquinoline]",103 to 107 °C,
CN1Cc2ccccc2C(c2ccc3sccc3c2O)C1 (stereo not drawn) (as salt: fumarate) [Example 88 (+)],213 to 215 °C,
"Cc1cccc2c1C(c1ccc3ccccc3c1)CN(C)C2 (stereo not shown) [Example 56, 2,5-dimethyl-4-(naphthalen-2-yl)-1,2,3,4-tetrahydroisoquinoline]",,Ki (SERT): 3.4 nM
"CN1Cc2cc(-c3cncnc3)ccc2C(c2cc3ccccc3s2)C1 (racemic) [Example 73, (±)-4-(benzo[b]thiophen-2-yl)-2-methyl-7-(pyrimidin-5-yl)-1,2,3,4-tetrahydroisoquinoline]",,inhibition at 0.1 µM (DAT): 39%; inhibition at 0.1 µM (SERT): 93%

# Further lines, with some results ahead:
melting point,SMILES,other results
99 to 102 °C,CN1Cc2cc(-c3cccnn3)ccc2C(c2cc3ccccc3s2)C1 (stereo not shown) (as salt: maleate),
148 to 153 °C,CN1Cc2c(cccc2N2CCOCC2)C(c2ccc3sccc3c2)C1.O=C(O)/C=C/C(=O)O (racemic),
110 to 117 °C,CN1Cc2ccccc2C(c2ccc3cn[nH]c3c2)C1.O=C(O)/C=C/C(=O)O (stereo not shown),
80 to 84 °C,CN1Cc2cc(C#N)ccc2C(c2cc3ccccc3s2)C1 (stereo not drawn) (as salt: maleate) [Example 79 (−)],
116 to 119 °C,CN1Cc2cc(-c3ccc(N(C)C)nn3)ccc2C(c2ccc3sccc3c2)C1 (stereo not shown) (as salt: fumarate),
214 to 216 °C,CN1Cc2ccccc2C(c2ccc3sccc3c2O)C1 (stereo not drawn) (as salt: fumarate) [Example 88 (−)],
98 to 99 °C,COc1c(C2CN(C)Cc3ccccc32)ccc2ccsc12 (stereo not shown) (as salt: fumarate),
210 to 214 °C,Cc1cccc2c1CN(C)CC2c1ccc2ccccc2c1 (stereo not shown) (as salt: hydrochloride),
81 to 85 °C,CN1Cc2ccccc2C(c2ccc3c(ccn3Cc3ccccc3)c2)C1 (racemic) (as salt: maleate),
179 to 181 °C,CC1c2ccccc2C(c2ccc3sccc3c2)CN1C (racemic) (as salt: fumarate),
91 to 94 °C,CN1Cc2cc(C#N)ccc2C(c2cc3ccccc3s2)C1 (stereo not drawn) (as salt: maleate) [Example 79 (+)],
155 to 157 °C,CCN1Cc2ccccc2C(c2ccc3sccc3c2O)C1 (stereo not drawn) (as salt: fumarate) [Example 89 (−)],
86 to 88 °C,"CN1Cc2cc(-c3cccnn3)ccc2C(c2ccc3ccccc3c2)C1 (single isomer, unassigned; (+)) (as salt: maleate) [Example 137, (+)-2-methyl-4-napthalen-2-yl-7-pyridazin-3-yl-1,2,3,4-tetrahydroisoquinoline, maleate salt]",
184 to 187 °C,CN1Cc2ccccc2C(C2=Cc3ccccc3C2)C1 (stereo not shown) (as salt: maleate),
94 to 97 °C,CN1Cc2cc(-c3cccnn3)ccc2C(c2cccc3sccc23)C1 (racemic) (as salt: maleate),
123 to 125 °C,CN(C)Cc1ccc2c(c1)CN(C)CC2c1ccc2sccc2c1 (racemic) (as salt: fumarate),
197 to 199 °C,COc1cccc2c1CN(C)CC2c1ccc2sccc2c1 (racemic) (as salt: fumarate),
122 to 124 °C,"CN1Cc2cc(-c3cccnn3)ccc2C(c2ccc3sccc3c2)C1 (single isomer, unassigned; (+)) (as salt: fumarate) [Example 97, (+)-4-benzo[b]thiophen-5-yl-2-methyl-7-pyridazin-3-yl-1,2,3,4-tetrahydroisoquinoline]",
83 to 88 °C,CN1Cc2ccccc2C(c2ccc3[nH]ncc3c2)C1.O=C(O)/C=C/C(=O)O (stereo not shown),
112 to 114 °C,CN1Cc2cc(C#N)ccc2C(c2ccc3sccc3c2)C1 (stereo not shown) (as salt: fumarate),
94 to 98 °C,CN1Cc2ccccc2C(c2ccc3c(Cl)c[nH]c3c2)C1 (racemic) (as salt: maleate),
167 to 169 °C,CN1Cc2ccccc2C(c2ccc3[nH]ncc3c2)C1 (stereo not shown),
142 to 145 °C,CN1Cc2cc(N3CCOCC3)ccc2C(c2cc3ccccc3s2)C1 (stereo not shown) (as salt: maleate),
228 to 230 °C,CN1Cc2ccccc2C(c2cccc3ccsc23)C1 (racemic) (as salt: salt),
182 to 186 °C,COc1c(-c2cccnn2)ccc2c1CN(C)CC2c1ccc2ccccc2c1.O=C(O)/C=C/C(=O)O (racemic),
92 to 95 °C,Cc1noc(C)c1-c1ccc2c(c1)CN(C)CC2c1cc2ccccc2s1 (racemic) (as salt: maleate),
105 to 108 °C,CN1Cc2cc(N3CCCC3)ccc2C(c2cc3ccccc3s2)C1 (racemic) (as salt: maleate),
80 to 82 °C,"CN1Cc2cc(CN3CCOCC3)ccc2C(c2cc3ccccc3s2)C1 (single isomer, unassigned) (as salt: maleate)",
158 to 159 °C,CCN1Cc2ccccc2C(c2ccc3sccc3c2O)C1 (stereo not drawn) (as salt: fumarate) [Example 89 (+)],
